Entries after “also recorded” stand apart in the source; their conditions may differ.
Columns and labels:
male CD-1 mice = experiment: Spontaneous locomotor activity (sLMA) test
Experimental: Male CD-1 mice, 6-weeks old, were obtained from Vital River (Beijing, China). The average body weight was 25-35 g at the time the experiments were carried out. The mice were housed in groups of 3-5 under controlled conditions (temperature: 20-26° C.; humidity: 40-70%; air exchange rate: 10-15 cycles/hour; 12:12 light-dark cycle with lights on at 5:00 a.m.). Food and water were available ad libitum. The mice were acclimated to these conditions for 6 days before the start of the studies.
Dosing solutions were prepared on each experiment day. […] All solutions were protected from light. Samples from dosing solutions were stored at 4° C. Both compound and vehicle were dosed at 10 ml/kg.
The sLMA test was carried out over two days. 5 of 10 mice from each treatment group were tested on each day. All animals were marked on the tail with a permanent marker and weighed. Mice were randomly assigned into one of the four treatment groups. Animals were acclimated to the test room at least 30 minutes before the start of the experiment.
Possible side effects, such as overt sedation, were recorded just before the start of the sLMA test.
Each mouse was automatically tracked with overhead cameras using a 1-minute sampling window in an isolated chamber. Spontaneous locomotor activity was then analyzed offline using the Animal Behavior Video Tracking Analysis System (Ji Liang Software Technology Co., Ltd., Shanghai, China).
Locomotor status was defined as >2 mm of movement in every 200 ms (Frame-rate recorded was 20 frames/second. Locomotor status was identified in every 4 frame-to-frame interval. The accumulated shift of tracking spots that exceeded 2 mm in every 4 frame intervals was identified as a locomotor epoch). Traveling distance was calculated automatically from all the locomotion epochs and analyzed.
All mice were anesthetized with CO2. Then, terminal plasma and brain tissue samples were collected from animals in the drug treatment groups. 500 μL whole blood was collected via cardiac puncture and placed in tubes with 10 μL EDTAK2. The tubes were then placed in wet ice until centrifuged at 2000 g for 5 minutes at 4° C. The supernatant plasma was pipetted into Eppendorf tubes.
All statistical analyses were conducted using GraphPad Prism 7.0. Data are presented as mean±s.e.m., and p<0.05 was regarded as statistically significant.
Dose-response and concentration-response curves for plasma and brain were fitted for each end-point using GraphPad Prism. From these fitted curves, TD50 and TC50 values were calculated.

healthy participants = experiment: Phase 1 SAD/MAD/food effect trial: safety and tolerability; format: in vivo, human
Experimental: This was a 3-part Phase 1 clinical trial in healthy participants aged 18-55 years. Parts A and B were randomized, placebo-controlled and evaluated the effects of single (2.5-150 mg) and multiple (30-120 mg, 14 days QD (every day)) ascending oral doses of Compound 1, respectively. Part C was an open-label, randomized, crossover design evaluating the PK of a single oral dose (90 mg) in fasted and fed states. In Parts A (n=64) and B (n=32), participants were randomized 3:1 to Compound 1 or placebo (n=8/cohort). In Part C (n=16), participants were randomized 1:1 to one of two treatment sequences receiving a single dose of 90 mg Compound 1 in the fed (following a high-fat/high calorie meal) or fasted (≥10 hours after the last, and 4 hours before the next, meal) state.

CA1 pyramidal neurons = experiment: Intrinsic excitability (evoked action potentials) of CA1 pyramidal neurons, brain slice whole-cell current clamp; format: cell-based, mouse
Experimental: Three hundred micrometer coronal hippocampal slices were cut on a vibratome (VT1200; Leica) for whole-cell patch-clamp experiments. Slices were incubated for a minimum of 1 hour in the incubation solution at room temperature before patching.
Brain slices were transferred to a submerged recording chamber on an upright microscope (Slicescope Pro 1000; Scientifica) and were perfused (2 ml/min) with the extracellular artificial cerebral spinal fluid (aCSF) recording solution at 32° C.
CA1 pyramidal neurons were identified visually in the stratum pyramidale of the CA1 region of the hippocampus, using infrared-oblique illumination microscopy with a 40× water-immersion objective (Olympus) using a camera (Dage IR-2000; Dage). […] Patch-clamp recordings were made using a micromanipulator (MPC-200; Sutter) and Axon Multiclamp 700B patch-clamp amplifier (MDS). Data were acquired using pClamp software (v10; MDS) using a sampling rate of 50 kHz and low pass Bessel filtered at 10 kHz (Digidata 1550b; Axon).
Studies were performed using whole-cell current clamp recording mode. […] Once the whole-cell configuration was obtained for 2 minutes, a holding current was injected to maintain a membrane potential of approximately −70 mV. Current steps (injected current of between −60 to 340 pA in 20 pA steps, 400 ms duration) (FIG. 1B)) were applied in current clamp mode. The amplitude of current injections was relative to the holding current. A test pulse (−5 pA amplitude, 50 ms duration) was applied 650 ms after the termination of the main current step. The inter sweep interval was 5 seconds (0.2 Hz). To be included in the study, a cell had to have an access resistance of less than 20 M2 and a holding current of less than −200 pA. Once baseline action potential firing was determined in the presence of the extracellular aCSF recording solution (baseline), Compound 1 (300 nM or 3 μM) was washed onto the slice for 5 minutes before repeating the action potential generating protocol (FIG. 1B).
Data were analyzed using Axograph X software. Individual action potentials were identified and counted using a +50 mV amplitude threshold relative to pre-event baseline. The frequencies of action potentials generated were plotted for each of the current injections to create an input-frequency relationship for each cell. Action potential amplitudes were determined relative to the pre-event baseline at the +200 pA current injection step for each cell. Once an action potential count had less than three cells contributing to the averaged amplitude, it was excluded from analysis. For statistical comparisons between groups, the total number of action potentials fired per cell was calculated. Statistical analysis was performed using GraphPad Prism software (v8). […]

[1] = tested on: Scn8a^N1768D/+ transgenic mouse; experiment: Audiogenic induced seizures in Scn8a N1768D/+ mouse model; format: in vivo
Experimental: Both male and female N1768D (D/+) mice, 8-12 weeks old, were used in the study. Compound 1 was administered orally (p.o.) at three doses (1 mg/kg, 3 mg/kg, 10 mg/kg) and also vehicle 1 hour prior to testing. The mice were randomized such that at the completion of the study each individual mouse had been evaluated at each test dose of Compound 1 and vehicle. A minimum of 3 days was allowed to elapse before retesting the mice. At the time of testing, mice were taken from their home cage and transferred to a clean test cage located in a separate testing room where they were allowed to acclimate for about 20 seconds before the onset of the acoustic stimulus. To induce audiogenic seizures, a 15 kHz signal was generated using Tone Generator software (NCH Software, Inc.), amplified using a Kinter K3118 stereo amplifier (Kinter USA), and converted to sound using a small 3-watt speaker lowered into the testing chamber. The stimulus was applied for 30 seconds unless a seizure was detected before the 30-second time point, in which case the audiogenic stimulus was terminated. Videos of the event were recorded using a laptop webcam. On the final day of testing, brains and plasma were collected from the D/+ mice immediately after audiogenic seizure testing to determine concentrations of Compound 1. A separate cohort of 8 age-matched WT mice were also included (n=2/dose level) to achieve a sample size of n=4 for PK for each dose level. Brain and plasma specimens were submitted for bioanalytical analysis.

[2] = tested on: heterozygous Kcnc1 R320H mice; experiment: Pentylenetetrazole (PTZ) induced seizure, Kcnc1 model; format: in vivo, mouse
Experimental: Pentylenetetrazole (PTZ), a GABA receptor antagonist, can be used to create a common, chemically-induced seizure model, a model of generalized seizure.
Mice were acclimated to experimental area for minimum 30 minutes before experimentation. All experiments were performed between 10:00 am and 12:30 pm. The treatment compounds and PTZ were always prepared fresh.
Mice were randomly assigned either to different doses of Compound 1 (10 mg/kg, 1 mg/kg, or 0.1 mg/kg) or a vehicle control containing 0.5% methylcellulose and 0.2% tween 80, and dosed via oral gavage (p.o). Compound 1 and the vehicle control were administered 60 minutes before the injection of PTZ.
PTZ (100 mg/kg) was dissolved in saline and administered subcutaneously (s.c) to the experimental mice. The latency to full tonic-clonic seizure with hind limb extension was measured. The animals were sacrificed either at the time of hind limb extension or 40 minutes after PTZ administration if no hind limb extension was recorded.
Data were analyzed using a Mantel-Cox log-rank test. Brain tissue and plasma were collected from some mice for each dose of Compound 1 at the PTZ endpoint for PK analysis.

hNaV1.2 = hNaV1.2 (Homo sapiens, UniProt Q99250); experiment: Peak INa voltage-dependent block, patch clamp; format: cell-based
Experimental: (§1) Voltage Dependent Block (VDB): VDB protocols used a depolarized voltage to keep channels in half-inactivated (resting) states. This allowed equilibrium binding and accurate determination of isoform selectivity (in the absence of biological features). For each cell, the midpoint of inactivation (V0.5) was determined using a 5,000 ms step to increase voltages (10 mV increments) to inactivate the channel immediately followed by a 2 ms step to 0 mV to maximally activate the channels. The holding potential (Vhold) was −120 mV between steps. The peak INa measured in response to the step to 0 mV was plotted and fitted with a Boltzmann equation to determine the V0.5. This value was then used for the VDB protocol. Pharmacology was measured during peak INa in response to step to 0 mV. No leak subtraction was used.

hNaV1.5 = hNaV1.5 (Homo sapiens, UniProt Q14524); experiment: Peak INa voltage-dependent block, patch clamp; format: cell-based
Experimental: as §1

hNaV1.1 = hNaV1.1 (Homo sapiens, UniProt P35498); experiment: Peak INa voltage-dependent block, patch clamp; format: cell-based
Experimental: as §1

Sequence of hNaV1.5 (Q14524 1-2015 isoform Q14524-2): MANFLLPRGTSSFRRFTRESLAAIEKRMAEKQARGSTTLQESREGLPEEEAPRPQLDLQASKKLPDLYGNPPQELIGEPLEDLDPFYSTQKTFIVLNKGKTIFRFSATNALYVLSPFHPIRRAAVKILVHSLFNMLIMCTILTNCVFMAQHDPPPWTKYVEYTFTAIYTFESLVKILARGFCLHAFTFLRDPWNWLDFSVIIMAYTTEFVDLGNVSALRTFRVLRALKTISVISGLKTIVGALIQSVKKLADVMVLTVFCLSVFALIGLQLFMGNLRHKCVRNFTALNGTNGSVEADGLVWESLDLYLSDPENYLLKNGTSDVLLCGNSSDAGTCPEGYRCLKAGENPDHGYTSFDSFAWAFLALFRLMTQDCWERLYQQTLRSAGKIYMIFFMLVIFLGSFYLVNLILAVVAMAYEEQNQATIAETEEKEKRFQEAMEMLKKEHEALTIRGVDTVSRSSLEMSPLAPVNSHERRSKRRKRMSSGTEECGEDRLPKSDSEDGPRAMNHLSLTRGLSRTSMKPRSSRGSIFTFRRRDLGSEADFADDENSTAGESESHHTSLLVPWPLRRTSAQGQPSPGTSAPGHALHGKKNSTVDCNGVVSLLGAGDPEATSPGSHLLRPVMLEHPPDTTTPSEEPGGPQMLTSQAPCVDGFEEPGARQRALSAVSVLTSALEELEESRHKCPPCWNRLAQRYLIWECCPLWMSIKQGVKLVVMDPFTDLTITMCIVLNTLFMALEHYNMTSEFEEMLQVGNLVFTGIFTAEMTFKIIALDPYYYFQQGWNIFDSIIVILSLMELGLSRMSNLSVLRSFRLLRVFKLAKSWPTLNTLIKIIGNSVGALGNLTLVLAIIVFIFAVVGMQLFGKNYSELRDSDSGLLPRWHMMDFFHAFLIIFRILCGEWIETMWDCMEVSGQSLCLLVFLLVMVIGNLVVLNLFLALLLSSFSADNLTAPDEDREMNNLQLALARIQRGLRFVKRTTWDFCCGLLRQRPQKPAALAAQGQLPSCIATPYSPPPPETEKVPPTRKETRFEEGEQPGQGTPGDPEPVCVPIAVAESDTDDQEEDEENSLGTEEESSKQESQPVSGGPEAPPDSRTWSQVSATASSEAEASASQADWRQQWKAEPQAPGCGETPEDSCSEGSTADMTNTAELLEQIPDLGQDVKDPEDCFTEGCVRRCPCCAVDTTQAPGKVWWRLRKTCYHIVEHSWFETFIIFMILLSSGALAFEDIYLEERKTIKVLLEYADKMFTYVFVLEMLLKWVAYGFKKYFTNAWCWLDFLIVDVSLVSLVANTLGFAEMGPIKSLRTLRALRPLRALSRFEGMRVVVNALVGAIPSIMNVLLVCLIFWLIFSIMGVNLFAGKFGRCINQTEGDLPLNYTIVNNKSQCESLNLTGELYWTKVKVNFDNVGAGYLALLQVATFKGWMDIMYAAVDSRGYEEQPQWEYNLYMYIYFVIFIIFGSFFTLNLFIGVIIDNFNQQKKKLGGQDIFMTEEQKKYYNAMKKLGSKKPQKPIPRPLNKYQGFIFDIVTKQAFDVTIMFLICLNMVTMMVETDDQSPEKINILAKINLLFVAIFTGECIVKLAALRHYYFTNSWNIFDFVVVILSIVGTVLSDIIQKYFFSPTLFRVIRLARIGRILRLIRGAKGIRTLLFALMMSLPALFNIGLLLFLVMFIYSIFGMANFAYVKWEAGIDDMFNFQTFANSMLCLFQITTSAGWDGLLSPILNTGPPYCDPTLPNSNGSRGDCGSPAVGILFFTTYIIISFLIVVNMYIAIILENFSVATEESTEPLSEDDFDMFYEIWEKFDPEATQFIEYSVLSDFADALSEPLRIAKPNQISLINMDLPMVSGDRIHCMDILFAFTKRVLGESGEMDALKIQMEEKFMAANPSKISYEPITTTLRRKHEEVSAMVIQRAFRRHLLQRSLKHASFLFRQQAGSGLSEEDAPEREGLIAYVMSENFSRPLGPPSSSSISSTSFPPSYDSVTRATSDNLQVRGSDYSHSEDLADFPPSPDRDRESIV
Sequence of hNaV1.2 (Q99250 whole entry, canonical isoform): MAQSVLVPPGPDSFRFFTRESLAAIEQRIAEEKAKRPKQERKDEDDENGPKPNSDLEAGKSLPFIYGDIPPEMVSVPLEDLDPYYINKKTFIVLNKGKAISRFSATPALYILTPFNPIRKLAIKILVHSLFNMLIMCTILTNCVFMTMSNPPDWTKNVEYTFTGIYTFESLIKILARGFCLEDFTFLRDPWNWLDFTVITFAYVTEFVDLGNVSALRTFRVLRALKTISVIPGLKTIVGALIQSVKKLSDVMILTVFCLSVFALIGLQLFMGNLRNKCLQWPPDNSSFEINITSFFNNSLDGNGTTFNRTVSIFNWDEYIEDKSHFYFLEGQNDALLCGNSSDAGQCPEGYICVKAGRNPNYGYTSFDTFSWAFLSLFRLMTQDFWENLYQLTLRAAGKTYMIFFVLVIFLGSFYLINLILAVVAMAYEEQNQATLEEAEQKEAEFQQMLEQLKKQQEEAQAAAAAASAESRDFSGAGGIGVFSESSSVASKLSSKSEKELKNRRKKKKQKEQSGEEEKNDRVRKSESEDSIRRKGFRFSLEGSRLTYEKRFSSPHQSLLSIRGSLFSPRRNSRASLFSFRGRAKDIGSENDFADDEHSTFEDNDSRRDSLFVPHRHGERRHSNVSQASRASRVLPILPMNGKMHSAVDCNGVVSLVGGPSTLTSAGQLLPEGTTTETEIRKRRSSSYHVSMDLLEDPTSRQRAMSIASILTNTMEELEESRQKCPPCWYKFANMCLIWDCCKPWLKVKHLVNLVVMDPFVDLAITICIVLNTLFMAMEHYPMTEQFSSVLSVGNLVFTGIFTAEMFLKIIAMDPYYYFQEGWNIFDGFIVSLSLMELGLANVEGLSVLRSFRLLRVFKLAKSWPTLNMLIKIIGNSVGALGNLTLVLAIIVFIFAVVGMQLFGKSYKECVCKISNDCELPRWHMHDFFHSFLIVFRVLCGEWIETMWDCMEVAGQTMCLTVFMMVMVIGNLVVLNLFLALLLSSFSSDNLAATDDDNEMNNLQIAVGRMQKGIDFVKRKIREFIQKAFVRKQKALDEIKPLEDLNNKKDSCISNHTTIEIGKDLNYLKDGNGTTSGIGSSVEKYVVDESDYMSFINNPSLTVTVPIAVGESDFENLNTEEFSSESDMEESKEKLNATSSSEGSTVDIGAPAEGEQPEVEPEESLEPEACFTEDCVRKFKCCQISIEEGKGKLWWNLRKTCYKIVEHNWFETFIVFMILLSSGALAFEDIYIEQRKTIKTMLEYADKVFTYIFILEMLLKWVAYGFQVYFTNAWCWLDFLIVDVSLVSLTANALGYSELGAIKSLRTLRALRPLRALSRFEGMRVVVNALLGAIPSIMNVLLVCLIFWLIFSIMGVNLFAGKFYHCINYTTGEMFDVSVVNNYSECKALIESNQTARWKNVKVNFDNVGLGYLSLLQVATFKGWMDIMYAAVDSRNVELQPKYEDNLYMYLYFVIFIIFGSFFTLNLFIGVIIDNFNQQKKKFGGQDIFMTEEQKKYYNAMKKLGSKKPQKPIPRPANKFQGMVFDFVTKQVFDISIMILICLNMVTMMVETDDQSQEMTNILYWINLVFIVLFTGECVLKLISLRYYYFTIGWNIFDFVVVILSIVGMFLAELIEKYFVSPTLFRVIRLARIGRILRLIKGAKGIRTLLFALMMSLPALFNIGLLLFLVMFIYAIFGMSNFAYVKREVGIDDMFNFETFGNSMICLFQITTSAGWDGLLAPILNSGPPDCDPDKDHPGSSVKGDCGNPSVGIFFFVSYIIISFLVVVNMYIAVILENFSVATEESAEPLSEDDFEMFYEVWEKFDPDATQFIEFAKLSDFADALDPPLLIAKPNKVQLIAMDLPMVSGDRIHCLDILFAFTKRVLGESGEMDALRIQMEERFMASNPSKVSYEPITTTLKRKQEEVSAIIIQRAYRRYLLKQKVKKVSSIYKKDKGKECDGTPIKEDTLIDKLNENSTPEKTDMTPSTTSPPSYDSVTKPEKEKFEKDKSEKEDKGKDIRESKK

With `CCOC(F)(F)c1nnc2cnc(-c3cnc(OCC(F)(F)F)c(F)c3)cn12` [Compound 1, 3-(ethoxydifluoromethyl)-6-(5-fluoro-6-(2,2,2-trifluoroethoxy)pyridin-3-yl)-[1,2,4]triazolo[4,3-a]pyrazine] the “effect on locomotor function” value (male CD-1 mice; 10 mg/kg) was “no effect on locomotor function”, the “total traveling distance in 30-minute sLMA test” value (male CD-1 mice; 20 and 40 mg/kg p.o.) was “significantly reduced; also recorded: reductions in the distance moved” and the “sLMA distance moved, dose-response” value (male CD-1 mice; Compound 1 10-40 mg/kg po) was “dose-dependent reductions in distance moved”. The “sLMA TC50 in brain (total)” value (male CD-1 mice; brain) was 1899 ng/g, the “sLMA TC50 in brain (free)” value (male CD-1 mice; brain, free) was 69.7 nM and the “Tolerability (sLMA) TD50” value (male CD-1 mice; dose reducing sLMA by 50%) was 44 mg/kg. For the same compound, the “Tolerability (sLMA) TC50 (free brain)” value (male CD-1 mice; free brain concentration) was 69.7 nM, the “sLMA TC50 in plasma (total)” value (male CD-1 mice; plasma) was 1.553 µg/mL and the “PI (Plasma)” value (male CD-1 mice; plasma TC50 (sLMA) / plasma EC50 (MES), free concentrations) was 17.3. The “sLMA TC50 in plasma (free)” value (male CD-1 mice; plasma, free) was 308.9 nM, the “TEAEs that were mild” value (healthy participants; healthy participants) was > 92% and the “safety findings in vital signs, clinical laboratory results, physical exams, ECGs, C-SSRS” value (healthy participants; healthy participants) was “no clinically significant safety findings”. The “participants experiencing typical NaV blocker events” value (healthy participants; more frequent at 120 mg and 150 mg) was 34%, the “tolerability in healthy participants” value (healthy participants; single doses up to 150 mg, up to 120 mg QD 14 days, 90 mg fed and fasted) was “well-tolerated; also recorded: well tolerated” and the “intrinsic excitability, number of evoked APs” value (CA1 pyramidal neurons; 0.3 μmol/L (peak INa VDB IC50)) was “significantly reduced”. For the same compound, the AP amplitude (CA1 pyramidal neurons; +200 pA current injection, 0.3 μmol/L Compound 1, 45 μmol/L CBZ) was “without compromising”, the “number of action potentials generated / action potential firing frequency vs baseline” value (CA1 pyramidal neurons; Compound 1 at 0.3 and 3 μM, wildtype mice) was “significantly reduced” and the “protection from audiogenic seizures” value ([1]; 10 mg/kg p.o.) was “complete protection”. The “inhibition of audiogenic seizures” value ([1]; 1, 3, 10 mg/kg p.o., 1 hour prior to testing) was “dose dependent inhibition”, the “protection from seizures (FIG. 14B)” value ([1]; Scn8a N1768D DEE mouse model) was “completely block seizures” and the “efficacy in KCNC1 R320H PTZ seizure model” value ([2]; 10 mg/kg p.o., 60 min before PTZ 100 mg/kg s.c.) was “highly efficacious”. The “protection from hindlimb extension (FIG. 14D)” value ([2]; Kcnc1 DEE mouse model, PTZ) was “robust anticonvulsant activity”, the “preference for persistent INa over peak INa voltage-dependent block” value (hNaV1.2) was 8.2 fold and the “preference for persistent INa over peak INa voltage-dependent block” value (hNaV1.5) was 5.8 fold. The “preference for persistent INa over peak INa voltage-dependent block” value (hNaV1.1) was 6.3 fold.
